This data set in a line: Toxicity in naive Sprague-Dawley rat assessed as motor impairment at 100 mg/kg, po measured after 5 hrs by rotarod test. The format is organism-based. The note with it: in vivo.

SMILES strings stand for the structures.

As for `NCC1(CC(=O)O)CCCCC1` [GABAPENTIN], the Activity entry is reported as “Non-Toxic”.

These data come from ChEMBL document CHEMBL5046296 (J Med Chem, 2022).
